What was measured:
legumain [1] = molecular target: T1, legumain (Homo sapiens, UniProt Q99538); experiment: Fluorogenic continuous rate assay of legumain activity, substrate Z-Ala-Ala-Asn-AMC (kobs/[I]); assay type: biochemical; conditions: for kobs/[l] (second-order rate constant for the inactivation of legumain): substrate Z-Ala-Ala-Asn-AMC, 37° C. or 30° C., sodium citrate buffer, 1 mM dithiothreitol, 1 mM EDTA, approximate second-order inactivation constants
T1 sequence (Q99538 18-323): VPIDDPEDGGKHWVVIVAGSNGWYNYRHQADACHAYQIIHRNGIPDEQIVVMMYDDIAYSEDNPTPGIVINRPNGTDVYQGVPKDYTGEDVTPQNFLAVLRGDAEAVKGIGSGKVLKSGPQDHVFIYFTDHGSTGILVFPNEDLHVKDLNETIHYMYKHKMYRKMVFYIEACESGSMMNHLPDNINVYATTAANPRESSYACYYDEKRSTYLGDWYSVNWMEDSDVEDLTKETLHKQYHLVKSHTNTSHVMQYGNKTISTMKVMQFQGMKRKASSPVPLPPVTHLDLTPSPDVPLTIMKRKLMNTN
Procedure: The legumain activity was determined in a fluorogenic continuos rate assay using the substrate Z-Ala-Ala-Asn-AMC on a Kontron spectrofluorometer SFM25 (exitation 380; emission 460) equipped with a four cell changer and controlled by an IBM-compatible personal computer. The obtained data were analyzed with the software FLUCOL^(38). The assay were done at 37° C. or 30° C., using a sodium citrate buffer (39.5 mM citric acid/121 mM Na2HPO4) containing 1 mM dithiothreitol and 1 mM EDTA. Additionally, 0.1% (w/v) Chaps or 0.015% (w/v) Brij 35 was added.
The inhibition progress curves were analyzed using non-linear curve fitting software Prism Graph Pad to compute the kobs values. Approximate second-order inactivation constants (kobs/[I]) were calculated for all compounds.

legumain [2] = molecular target: T1, legumain; experiment: Determination of Ki-values, legumain, substrate Z-Ala-Ala-Asn-AMC; assay type: biochemical; conditions: HEPES pH 7.6, 30° C.; substrate 0.05, 0.1, 0.2 and 0.4 mM
Procedure: 100 μl inhibitor stock solution were mixed with 100 μl buffer (HEPES pH 7.6) and 50 μl substrate Z-Ala-Ala-Asn-AMC and preincubated at 30° C. Reaction was started by addition of 20 μl enzyme solution. Formation of the product AMC was measured on a Kontron spectrofluorometer SFM25 (exitation 380; emission 460) and slopes were calculated. Legumain activity was measured at final substrate concentrations of 0.05, 0.1, 0.2, and 0.4 mM and further 7 inhibitor concentrations covering the IC50 concentration. Calculations were performed using the GraFit 4.0.13 (Erithacus) Software.

COC(=O)/C=C/[C@H](CC(N)=O)NC(=O)[C@H](C)NC(=O)[C@H](C)NC(=O)OCc1ccccc1 [Compound 5, Methyl (S)-(E)-4-[Cbz-L-Ala-L-Ala]amino-6-amino-6-oxo-2-hexenoate]
kobs/[l] (second-order rate constant for the inactivation of legumain) (legumain [1]): 543 M⁻¹ s⁻¹

CCOC(=O)/C=C/[C@H](CC(N)=O)NC(=O)[C@H](C)NC(=O)[C@H](C)NC(=O)OCc1ccccc1 [Compound 6, Ethyl (S)-(E)-4-[Cbz-L-Ala-L-Ala]amino-6-amino-6-oxo-2-hexenoate]
kobs/[l] (second-order rate constant for the inactivation of legumain) (legumain [1]): 456 M⁻¹ s⁻¹

C=CCOC(=O)/C=C/[C@H](CC(N)=O)NC(=O)[C@H](C)NC(=O)[C@H](C)NC(=O)OCc1ccccc1 [Compound 7, Allyl (S)-(E)-4-[Cbz-L-Ala-L-Ala]amino-6-amino-6-oxo-2-hexenoate]
kobs/[l] (second-order rate constant for the inactivation of legumain) (legumain [1]): 776 M⁻¹ s⁻¹

CC(NC(=O)OCc1ccccc1)C(=O)NC(C)C(=O)N[C@H](/C=C/C(=O)O)CC(N)=O (stereo partly drawn) [Compound 8, (S)-(E)-4-[Cbz-L-Ala-L-Ala]amino-6-amino-6-oxo-2-hexenoic acid]
kobs/[l] (second-order rate constant for the inactivation of legumain) (legumain [1]): 4 M⁻¹ s⁻¹

COC(=O)/C(C)=C/[C@H](CC(N)=O)NC(=O)C(C)NC(=O)C(C)NC(=O)OCc1ccccc1 (stereo partly drawn) [Compound 9, Methyl (S)-(E)-4-[Cbz-L-Ala-L-Ala]amino-6-amino-2-methyl-6-oxo-2-hexenoate]
kobs/[l] (second-order rate constant for the inactivation of legumain) (legumain [1]): 2 M⁻¹ s⁻¹

CCOC(=O)/C(C)=C/[C@H](CC(N)=O)NC(=O)C(C)NC(=O)C(C)NC(=O)OCc1ccccc1 (stereo partly drawn) [Compound 10, Ethyl (S)-(E)-4-[Cbz-L-Ala-L-Ala]amino-6-amino-2-methyl-6-oxo-2-hexenoate]
kobs/[l] (second-order rate constant for the inactivation of legumain) (legumain [1]): 2 M⁻¹ s⁻¹

C/C(=C\[C@H](CC(N)=O)NC(=O)[C@H](C)NC(=O)[C@H](C)NC(=O)OCc1ccccc1)C(=O)O [Compound 11, (S)-(E)-4-[Cbz-L-Ala-L-Ala]amino-6-amino-2-methyl-6-oxo-2-hexenoic acid]
kobs/[l] (second-order rate constant for the inactivation of legumain) (legumain [1]): <1 M⁻¹ s⁻¹

CC(NC(=O)OCc1ccccc1)C(=O)NC(C)C(=O)NN(CC(N)=O)C(=O)CCl [Compound 18, 2-[2-(Cbz-L-Ala-L-Ala)-1-(chloroacetyl)hydrazino]acetamide]
second-order rate constant for the inactivation of legumain, fold higher than that of the Michael acceptor inhibitors (legumain [1]; compared with the Michael acceptor inhibitors): approximately 200 fold | kobs/[l] (second-order rate constant for the inactivation of legumain) (legumain [1]): 139088 M⁻¹ s⁻¹

C[C@H](NC(=O)OCc1ccccc1)C(=O)N[C@@H](C)C(=O)N[C@@H](CC(N)=O)C(=O)NOC(=O)c1ccccc1 [Compound 20, [Cbz-L-Ala-L-Ala-L-Asn]-O-benzoylhydroxamate]
Ki (legumain [2]): 3.1 µM

C[C@H](NC(=O)OCc1ccccc1)C(=O)N[C@@H](C)C(=O)NN(CC(N)=O)C(=O)CBr [Compound 22, 2-[2-(Cbz-L-Ala-L-Ala)-1-(bromoacetyl)hydrazino]acetamide]
inhibition of legumain (in words) (legumain [1]): potent inhibitor | kobs/[l] (second-order rate constant for the inactivation of legumain) (legumain [1]): 84000 M⁻¹ s⁻¹

C[C@H](NC(=O)OCc1ccccc1)C(=O)N[C@@H](C)C(=O)NN(CC(N)=O)C(=O)COC(=O)c1ccccc1 [Compound 24, 2-[2-(Cbz-L-Ala-L-Ala)-1-(benzoyloxyacetyl)hydrazino]acetamide]
inhibition of legumain (in words) (legumain [1]): only moderate inhibition | kobs/[l] (second-order rate constant for the inactivation of legumain) (legumain [1]): 13 M⁻¹ s⁻¹

Diethyl [(S)-(E)-3-[Cbz-L-Ala-L-Ala]amino-5-amino-5-oxo-1-petenylphosphate [Compound 13]
kobs/[l] (second-order rate constant for the inactivation of legumain) (legumain [1]): <1 M⁻¹ s⁻¹

Methyl [(S)-(E)-3-[Cbz-L-Ala-L-Ala]amino-5-amino-5-oxo-1-petene]-sulfonate [Compound 12]
kobs/[l] (second-order rate constant for the inactivation of legumain) (legumain [1]): 30 M⁻¹ s⁻¹
